# How the values were obtained:
# [1] = target: T1, 5-hydroxytryptamine receptor 3A (Rattus norvegicus, UniProt P35563); experiment: In Vitro Binding affinity againist 5-hydroxytryptamine 3 receptor by displacing [3H]-Q-ICS 205-930 from rat cortex homogenates
# T1 sequence (P35563 whole entry): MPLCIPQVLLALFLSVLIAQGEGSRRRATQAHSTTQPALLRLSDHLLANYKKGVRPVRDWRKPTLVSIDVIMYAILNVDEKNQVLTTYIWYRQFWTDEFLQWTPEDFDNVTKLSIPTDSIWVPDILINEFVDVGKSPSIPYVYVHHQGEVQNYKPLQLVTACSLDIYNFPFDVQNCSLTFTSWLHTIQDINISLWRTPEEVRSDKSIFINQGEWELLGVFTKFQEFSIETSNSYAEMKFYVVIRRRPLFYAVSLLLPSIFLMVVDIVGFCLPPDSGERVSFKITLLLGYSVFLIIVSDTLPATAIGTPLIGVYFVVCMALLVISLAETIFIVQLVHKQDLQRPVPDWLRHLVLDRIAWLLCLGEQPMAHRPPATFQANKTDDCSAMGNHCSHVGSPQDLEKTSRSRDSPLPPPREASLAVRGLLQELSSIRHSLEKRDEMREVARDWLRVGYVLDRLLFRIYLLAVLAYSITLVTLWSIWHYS
# [2] = target: 5-hydroxytryptamine receptor 2A (Rattus norvegicus, UniProt P14842); experiment: In Vitro Binding affinity againist 5-HT2A receptor by displacing [3H]-DOB from rat cortex homogenates
# Oryctolagus cuniculus [3] = organism: Oryctolagus cuniculus; experiment: In Vitro functional activity in rabbit saphenous vein
# Oryctolagus cuniculus [4] = organism: Oryctolagus cuniculus; experiment: Relative maximum in rabbit by obtaining the maximum contraction relative to the maximum response with 1 uM 5-HT; assay type: functional
# 5-hydroxytryptamine receptor 2A, sequence (P14842 whole entry): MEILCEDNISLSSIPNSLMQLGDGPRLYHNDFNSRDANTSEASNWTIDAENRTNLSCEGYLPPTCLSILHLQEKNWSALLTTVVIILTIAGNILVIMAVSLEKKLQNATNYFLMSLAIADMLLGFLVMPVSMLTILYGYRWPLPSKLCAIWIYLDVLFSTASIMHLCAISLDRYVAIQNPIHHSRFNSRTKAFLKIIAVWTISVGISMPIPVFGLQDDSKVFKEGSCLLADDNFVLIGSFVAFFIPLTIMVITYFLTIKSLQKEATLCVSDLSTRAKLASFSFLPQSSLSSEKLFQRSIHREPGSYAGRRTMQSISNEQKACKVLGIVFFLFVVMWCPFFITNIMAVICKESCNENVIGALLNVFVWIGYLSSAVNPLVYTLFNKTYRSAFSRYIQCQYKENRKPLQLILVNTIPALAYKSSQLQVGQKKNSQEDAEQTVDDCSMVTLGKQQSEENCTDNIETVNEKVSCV
IC50 [1] [µM],IC50 [2] [µM],SMILES,EC50 (Oryctolagus cuniculus [3]) [µM],Activity (Oryctolagus cuniculus [4])
3.98,3.39,CN(C)CCc1coc2ccc(C(N)=O)cc12,–,–
4.27,> 10,NCCC1COc2ccc(C(N)=O)cc21 (stereo unspecified),–,–
7.41,1.7,NCCc1coc2ccc(C(N)=O)cc12,0.158,1.2

SMILES,IC50 [1] [µM],IC50 [2] [µM],EC50 (Oryctolagus cuniculus [3]) [µM],Activity (Oryctolagus cuniculus [4])
NCCc1c[nH]c2ccc(C(N)=O)cc12,–,21.9,0.0282,1.06
